{"source": "patent US20150175655A1", "about": "(priority 2012, published 2015)", "data": [{"target": "T1, NS3 genotype 1b protease (Hepatitis C virus genotype 1b, UniProt Q9WMX2, E1202G)", "T1 construct": "Purified NS3 protease domain (amino acids 1-181) of the genotype 1b and 3a virus were generated as above; K3 hexahistidine tag (N); rTEV protease cleavage site (N); made in house; host or cells: E. coli BL21AI, pET28 vector p28-N6H-Tev-NS3(181)1b", "test": "Ki determination, NS3 protease genotype 1b (fluorogenic depsipeptide substrate)", "type": "biochemical", "settings": "not given", "from_the_text": "(§1) The coding sequence of the genotype 1b (con-1 strain) HCV NS3 protease domain was PCR amplified from a plasmid encoding the I389luc-ubi-neo/NS3-3′/ET replicon (Reblikon, Mainz, Germany). The 5′-PCR primer was designed to encode an N-terminal K3 hexahistidine tag and to insert an in-frame recombinant Tobacco Etch virus (rTEV) protease cleavage site into the NS3 coding sequence. The resulting DNA fragment was cloned into the pET28 protein expression vector (Invitrogen, Carlsbad, Calif.) yielding the p28-N6H-Tev-NS3(181)1b.\n(§2) BL21AI bacteria (Invitrogen, Carlsbad, Calif.) were transformed with genotype 1b or 3 NS3 expression vectors and used to inoculate a 20 L fermentation vessel (Sartorius BBI System Inc., Bethlehem, Pa.), containing 18 L of fresh 2YT medium supplemented with 50 μg/mL kanamycin. When cell densities reached an OD600 of 1, the temperature of the cultures was reduced from 37° C. to 28° C. and induction was immediately initiated by the addition of 30 μM ZnSO4, 14 mM L-arabinose and 1 mM Isopropyl β-D-thiogalactoside (IPTG) final concentrations. Cells were harvested by centrifugation four hours post-induction and were stored as frozen pellets at −80° C. prior to NS3 protein purification.\n(§3) Cell pellets were thawed and resuspended at 10 mL/g cells in lysis buffer containing 50 mM tris pH 7.6, 300 mM NaCl, 0.1% 3-[(3-cholamidopropyl)dimethylammonio]-1-propanesulfonate (CHAPS), 5% glycerol, and 2 mM β-mercaptoethanol. Cell suspensions were then sonicated, filtered through cheesecloth, and passed three times through a microfluidizer at 18,000 pounds/in^2. The resulting lysates were centrifuged at 15500 rpm for 45 minutes and supernatants were loaded onto a HisTrap HP column (GE Lifesciences) pre-equilibrated with five volumes of Ni buffer A (50 mM tris pH 7.6, 300 mM NaCl, 0.1% CHAPS, 5% glycerol, 2 mM β-mercaptoethanol, 50 mM imidazole-HCl). Proteins were eluted with a 0-100% gradient of Ni buffer A plus 500 mM imidazole-HCl and fractions were collected and pooled. The HisTrap pool was diluted 1:10 with SP-A buffer (50 mM tris pH 7.0, 10% glycerol, 2 mM dithiothreitol (DTT)) and loaded onto a HiTrap SP-HP column (GE Lifesciences) equilibrated with SP-A buffer. NS3 protease was eluted with a 0-100% SP-B buffer (SP-A buffer plus 1 M NaCl) gradient. Concentrated pools of NS3-containing SP fractions were aliquoted, snap frozen in liquid nitrogen and stored at −80° C.\n(§4) Purified NS3 protease domain (amino acids 1-181) of the genotype 1b and 3a virus were generated as above.\n(§5) Reactions were run at room temperature in buffer consisting of 50 mM HEPES, 40% glycerol, 0.05% Triton X-100, 10 mM DTT, and 10% DMSO. The final assay solutions contained 50 pM NS3 genotype 1b protease or 200 pM genotype 3a protease, 20 μM NS4A peptide, and 4 μM substrate (genotype 1 b) or 2 μM substrate (genotype 3a). Inhibitor concentrations varied from 100 nM to 5 pM in 3-fold dilutions, and no-inhibitor controls were included.\n(§6) Compound dilutions were made in DMSO at 20× final concentration. Reaction mixtures were prepared in 96-well assay plates. A solution of enzyme and NS4A peptide in assay buffer (25 μL volume with both reagents at 4× final concentration) was mixed with 45 μL assay buffer and 5 μL of either inhibitor or DMSO, and pre-incubated at room temperature for 1 hour. The reaction was started by addition of 25 μL substrate solution at 4× final concentration. Plates were mixed vigorously for 5-10 seconds and reactions were allowed to proceed for 90 minutes. fluorescence was measured every 30 s between 90 and 120 minutes reaction time using a Tecan InfiniTe M1000 or PerkinElmer Envision multimode plate reader with an excitation wavelength of 340 nm and an emission wavelength of 490 nm.\n(§7) To determine the K, rates were plotted as a function of inhibitor concentration, and the data were fit with equation 1 (Morrison, J. F., Biochimica et Biophysica Acta 1969, 185, 269-286) to calculate Ki^app using GraphPad Prism 5.", "units": {"Ki": "nM"}, "values": [{"compound": "CC[C@@H]1[C@@H]2CN(C(=O)[C@H](C(C)(C)C)NC(=O)O[C@@H]3C[C@H]3CCCCCc3nc4ccc(OC)cc4nc3O2)[C@@H]1C(=O)N[C@]1(C(=O)NS(=O)(=O)C2(C)CC2)C[C@H]1C(F)F", "note": "[Example 1, (1aR,5S,8S,9S,10R,22aR)-5-tert-butyl-N-[ (1R,2R)-2-(difluoromethyl)-1-{[(1-methylcyclopropyl)sulfonyl]carbamoyl}cyclopropyl]-9-ethyl-14-methoxy-3,6-dioxo-1,1a,3,4,5,6,9,10,18,19,20,21,22,22a-tetradecahydro-8H-7,10-methanocyclopropa[18,19][1,10,3,6]dioxadiazacyclononadecino[11,12-b]quinoxaline-8-carboxamide]", "Ki": 0.03}, {"compound": "CC[C@]12C[C@@H]1CCCCCc1nc3ccc(OC)cc3nc1O[C@H]1CN(C(=O)[C@H](C(C)(C)C)NC(=O)O2)[C@H](C(=O)N[C@]2(C(=O)NS(=O)(=O)C3(C)CC3)C[C@H]2C(F)F)[C@@H]1C", "note": "[Example 42, (1aS,5S,8S,9S,10R,22aS)-5-tert-butyl-N-[(1R,2R)-2-(difluoromethyl)-1-{[(1-methylcyclopropyl)sulfonyl]carbamoyl}cyclopropyl]-1a-ethyl-14-methoxy-9-methyl-3,6-dioxo-1,1a,3,4,5,6,9,10,18,19,20,21,22,22a-tetradecahydro-8H-7,10-methanocyclopropa[18,19][1,10,3,6]dioxadiazacyclononadecino[11,12-b]quinoxaline-8-carboxamide]", "Ki": 0.1}, {"compound": "CC[C@@H]1[C@@H]2CN(C(=O)[C@H](C(C)(C)C)NC(=O)O[C@@H]3C[C@H]3CCCC3CC3c3nc4ccc(OC)cc4nc3O2)[C@@H]1C(=O)N[C@]1(C(=O)NS(=O)(=O)C2(C)CC2)C[C@H]1C(F)F", "note": "(stereo partly drawn) [Example 36, (1aR,5S,8S,9S,10R,21aR)-5-tert-butyl-N-[(1R,2R)-2-(difluoromethyl)-1-{[(1-methylcyclopropyl)sulfonyl]carbamoyl}cyclopropyl]-9-ethyl-14-methoxy-3,6-dioxo-1a,3,4,5,6,9,10,17b,18,18a,19,20,21,21a-tetradecahydro-1H,8H-7,10-methanodicyclopropa[13,14:18,19][1,10,3,6]dioxadiazacyclononadecino[11,12-b]quinoxaline-8-carboxamide]", "Ki": 0.1}, {"compound": "COc1ccc2nc3c(nc2c1)O[C@H]1CN(C(=O)[C@H](C(C)(C)C)NC(=O)O[C@@H]2C[C@H]2CCCCC3(F)F)[C@H](C(=O)N[C@]2(C(=O)NS(=O)(=O)C3(C)CC3)C[C@H]2C(F)F)[C@@H]1C", "note": "[Example 46, (1aR,5S,8S,9S,10R,22aR)-5-tert-butyl-N-[(1R,2R)-2-(difluoromethyl)-1-{[(1-methylcyclopropyl)sulfonyl]carbamoyl}cyclopropyl]-18,18-difluoro-14-methoxy-9-methyl-3,6-dioxo-1,1a,3,4,5,6,9,10,18,19,20,21,22,22a-tetradecahydro-8H-7,10-methanocyclopropa[18,19][1,10,3,6]dioxadiazacyclononadecino[11,12-b]quinoxaline-8-carboxamide]", "Ki": 0.03}, {"compound": "CC[C@@H]1[C@@H]2CN(C(=O)[C@H](C(C)(C)C)NC(=O)O[C@@H]3C[C@H]3CCCCC(F)(F)c3nc4ccc(OC)cc4nc3O2)[C@@H]1C(=O)N[C@]1(C(=O)NS(=O)(=O)C2(C)CC2)C[C@H]1C(F)F", "note": "[Example 17, (1aR,5S,8S,9S,10R,22aR)-5-tert-butyl-N-[(1R,2R)-2-(difluoromethyl)-1-{[(1-methylcyclopropyl)sulfonyl]carbamoyl}cyclopropyl]-9-ethyl-18,18-difluoro-14-methoxy-3,6-dioxo-1,1a,3,4,5,6,9,10,18,19,20,21,22,22a-tetradecahydro-8H-7,10-methanocyclopropa[18,19][1,10,3,6]dioxadiazacyclononadecino[11,12-b]quinoxaline-8-carboxamide]", "Ki": 0.04}, {"compound": "CC[C@@]12C[C@H]1CCCCCc1nc3ccc(OC)cc3nc1O[C@H]1CN(C(=O)[C@H](C(C)(C)C)NC(=O)O2)[C@H](C(=O)N[C@]2(C(=O)NS(=O)(=O)C3(C)CC3)C[C@H]2C(F)F)[C@@H]1C", "note": "[Example 43, (1aR,5S,8S,9S,10R,22aR)-5-tert-butyl-N-[(1R,2R)-2-(difluoromethyl)-1-{[(1-methylcyclopropyl)sulfonyl]carbamoyl}cyclopropyl]-1a-ethyl-14-methoxy-9-methyl-3,6-dioxo-1,1a,3,4,5,6,9,10,18,19,20,21,22,22a-tetradecahydro-8H-7,10-methanocyclopropa[18,19][1,10,3,6]dioxadiazacyclononadecino[11,12-b]quinoxaline-8-carboxamide]", "Ki": 0.06}, {"compound": "CCOc1ccc2nc3c(nc2c1)O[C@H]1CN(C(=O)[C@H](C(C)(C)C)NC(=O)O[C@@H]2C[C@H]2CCCCC3)[C@H](C(=O)N[C@]2(C(=O)NS(=O)(=O)C3(C)CC3)C[C@H]2C(F)F)[C@@H]1CC", "note": "[Example 69, (1aR,5S,8S,9S,10R,22aR)-5-tert-butyl-N-[(1R,2R)-2-(difluoromethyl)-1-{[(1-methylcyclopropyl)sulfonyl]carbamoyl}cyclopropyl]-14-ethoxy-9-ethyl-3,6-dioxo-1,1a,3,4,5,6,9,10,18,19,20,21,22,22a-tetradecahydro-8H-7,10-methanocyclopropa[18,19][1,10,3,6]dioxadiazacyclononadecino[11,12-b]quinoxaline-8-carboxamide]", "Ki": 0.07}, {"compound": "COc1ccc2nc3c(nc2c1)O[C@H]1CN(C(=O)[C@H](C(C)(C)C)NC(=O)O[C@]2(C)C[C@H]2CCCCC3(F)F)[C@H](C(=O)N[C@]2(C(=O)NS(=O)(=O)C3(C)CC3)C[C@H]2C(F)F)[C@@H]1C", "note": "(single isomer, unassigned) [Example 76]", "Ki": 0.03}]}, {"target": "T1, NS3 genotype 1b protease", "test": "Ki determination, NS3 protease genotype 1b (fluorogenic depsipeptide substrate)", "type": "biochemical", "settings": "NS3 protease genotype 1b, 50 pM enzyme, 20 μM NS4A peptide, 4 μM substrate; read-out: Ki 1B", "from_the_text": "as §1, §2, §3, §4, §5, §6, §7", "units": {"Ki": "nM"}, "values": [{"compound": "CC[C@@H]1[C@@H]2CN(C(=O)[C@H](C(C)(C)C)NC(=O)O[C@]3(C(F)(F)F)CCCC3CCCCCc3nc4ccc(OC)cc4nc3O2)[C@@H]1C(=O)N[C@]1(C(=O)NS(=O)(=O)C2(C)CC2)C[C@H]1C(F)F", "note": "(stereo partly drawn) [Example 9, (7S,10S,11S,12R)-7-tert-butyl-N-[(1R,2R)-2-(difluoromethyl)-1-{[(1-methylcyclopropyl)sulfonyl]carbamoyl}cyclopropyl]-11-ethyl-16-methoxy-5,8-dioxo-3aR-(trifluoromethyl)-1,2,3,3a,5,6,7,8,11,12,20,21,22,23,24,24a-hexadecahydro-10H-9,12-methanocyclopenta[18,19][1,10,3,6]dioxadiazacyclononadecino[11,12-b]quinoxaline-10-carboxamide]", "Ki": 0.15}, {"compound": "CC[C@@H]1[C@@H]2CN(C(=O)[C@H](C(C)(C)C)NC(=O)O[C@@]3(C(F)(F)F)CCCC3CCCCCc3nc4ccc(OC)cc4nc3O2)[C@@H]1C(=O)N[C@]1(C(=O)NS(=O)(=O)C2(C)CC2)C[C@H]1C(F)F", "note": "(stereo partly drawn) [Example 10, (7S,10S,11S,12R)-7-tert-butyl-N-[(1R,2R)-2-(difluoromethyl)-1-{[(1-methylcyclopropyl)sulfonyl]carbamoyl}cyclopropyl]-11-ethyl-16-methoxy-5,8-dioxo-3aS-(trifluoromethyl)-1,2,3,3a,5,6,7,8,11,12,20,21,22,23,24,24a-hexadecahydro-10H-9,12-methanocyclopenta[18,19][1,10,3,6]dioxadiazacyclononadecino[11,12-b]quinoxaline-10-carboxamide]", "Ki": 0.16}]}]}
